According to ChEMBL document CHEMBL4145569, “Hypoxia-Protective Azaphilone Adducts from Peyronellaea glomerata” (J Nat Prod, 2018):

Tests used:
[1] = Antioxidant activity assessed as DPPH radical scavenging activity incubated for 30 mins under dark condition; format: functional
[2] = Antioxidant activity assessed as ABTS radical scavenging activity incubated for 6 mins under dark condition; format: functional
HUVEC [3] = test: (§1) Protection against hypoxia/reoxygenation-induced cell injury in HUVEC assessed as late apoptotic cells at 1 uM treated 1 hr prior to hypoxia induction for 12 hrs followed by compound redosing and subsequent reoxygenation for 3 hrs by annexin-V-FITC/propidium iodide staining based flow cytometric analysis (reference value: 22.8%); format: functional, Homo sapiens
HUVEC [4] = test: Protection against hypoxia/reoxygenation-induced cell injury in HUVEC assessed as cell viability at 5 uM treated 1 hr prior to hypoxia induction for 12 hrs followed by compound redosing and subsequent reoxygenation for 3 hrs by MTT assay (reference value: 35%); format: functional; conditions: Homo sapiens, read-out: Activity
HUVEC [5] = test: as §1, with “at 5” for “at 1”; format: functional, Homo sapiens

| Compound | EC50 [1] [µM] | EC50 [2] [µM] | Activity (HUVEC [3]) [%] | viability at 5 µM (HUVEC [4]) [%] | Activity (HUVEC [5]) [%] |
| --- | --- | --- | --- | --- | --- |
| CC[C@@H](C)[C@]12OC(=O)[C@]3(O)C[C@H](O1)c1c(cc(O)c(C)c1O)[C@]23C | 83.5 to 126 | 83.5 to 126 |  |  |  |
| CC[C@@H](C)[C@@]12OC(=O)[C@@]3(O)C[C@@H](O1)c1c(cc(O)c(C)c1O)[C@@]23C | 83.5 to 126 | 83.5 to 126 | 9.8 | 70 | 9.4 |
